Experimental data as given in ChEMBL document CHEMBL5614437, “Antibacterial and Anti-Inflammatory Activity of Branched Peptides Derived from Natural Host Defense Sequences” (J Med Chem, 2024).
The source made the active and inactive calls. The calls are words filed in the database; no cut-off is given here. Bridges are numbered along the chain shown (N, C = ends). Roman numbers before positions name the chains, in order.

Experiments:
Lipopolysaccharide (LPS) = assay: Binding affinity to biotin-tagged LPS (unknown origin) preincubated for 30 mins followed by compound addition and 30 mins of incubation with streptavidin-POD by ELISA based microplate spectrophotometer; type: subcellular; details: dose 1-10 µg/ml
Enterococcus faecalis = assay: Antibacterial activity against Enterococcus faecalis 51299 incubated for 12 hrs by microdilution method; type: functional
Escherichia coli [1] = assay: Antibacterial activity against Escherichia coli clinical isolate LC711/14 incubated for 12 hrs by microdilution method; type: functional
Klebsiella pneumoniae [2] = assay: Antibiofilm activity against 24 hrs preformed biofilm in Klebsiella pneumoniae ATCC43816 assessed as reduction in preformed biofilm incubated for 14 hrs by absorbance based analysis; type: functional
RAW264.7 [3] = assay: Cytotoxicity against mouse RAW264.7 cells assessed as cell killing incubated for 4 to 24 hrs by crystal violet staining based analysis; type: toxicity; details: time 4-24 hrs
Pseudomonas aeruginosa [4] = assay: Antibacterial activity against Pseudomonas aeruginosa ATCC 27853 incubated for 12 hrs by microdilution method; type: functional
Escherichia coli [5] = assay: Antibiofilm activity against 24 hrs preformed biofilm in Escherichia coli TG1 assessed as reduction in preformed biofilm incubated for 14 hrs by absorbance based analysis; type: functional
Klebsiella pneumoniae [6] = assay: Antibiofilm activity against Klebsiella pneumoniae ATCC43816 assessed as inhibition of biofilm formation incubated for 24 hrs by absorbance based analysis; type: functional
Cell membrane [7] = assay: Induction of cytoplasmic membrane permeabilization in Escherichia coli TG1 assessed as enlargement of bacterial cells at 2 times of MIC measured after 30 to 60 mins by SEM analysis; type: cell membranes; details: time 30-60 min
Cell membrane [8] = assay: Induction of cytoplasmic membrane permeabilization in Escherichia coli TG1 assessed as increase in fluorescence at 2 times of MIC measured after 10 mins by PI/Sytox green dye based analysis; type: cell membranes
RAW264.7 [9] = assay: Cytotoxicity against mouse RAW264.7 cells assessed as cell death at 1 log concentration incubated for 4 to 24 hrs by crystal violet staining based analysis relative to control; type: toxicity; details: time 4-24 hrs
[10] = Stability of compound in human serum at 180 uM measured after 24 hrs by HPLC-MS analysis; type: ADME, cell-free
Cell membrane [11] = assay: Induction of cytoplasmic membrane permeabilization in Escherichia coli TG1 assessed as increase in fluorescence incubated for 100 to 120 mins by PI/Sytox green dye based analysis; details: dose 1.5-3 µM, time 100-120 min
Staphylococcus aureus = assay: Antibacterial activity against Staphylococcus aureus USA300 incubated for 12 hrs by microdilution method; type: functional
[12] = Stability of compound in human serum at 180 uM measured after 4 hrs by HPLC-MS analysis; type: ADME, cell-free
Escherichia coli [13] = assay: Antibiofilm activity against Escherichia coli TG1 assessed as inhibition of biofilm formation incubated for 24 hrs by absorbance based analysis; type: functional
Klebsiella pneumoniae [14] = assay: Antibacterial activity against colistin-resistant Klebsiella pneumoniae incubated for 12 hrs by microdilution method; type: functional
Klebsiella pneumoniae [15] = assay: Antibacterial activity against Klebsiella pneumoniae ATCC43816 incubated for 12 hrs by microdilution method; type: functional
Cell membrane [16] = assay: Induction of cytoplasmic membrane permeabilization in Escherichia coli TG1 assessed as loss of surface smoothness at 2 times of MIC measured after 30 to 60 mins by SEM analysis; details: time 30-60 min
Cell membrane [17] = assay: Induction of cytoplasmic membrane permeabilization in Escherichia coli TG1 assessed as wrinkling of membrane surface at 2 times of MIC measured after 30 to 60 mins by SEM analysis; details: time 30-60 min
[18] = Selectivity ratio of biofilm prevention concentration for antibiofilm activity against Escherichia coli TG1 to MIC for antibacterial activity against Escherichia coli TG1; type: functional
Erythrocyte [19] = assay: Hemolytic activity in human RBC assessed as hemolysis at ~15 uM incubated for 2 hrs by absorbance based plate reader analysis; type: toxicity, cell-based
Cell membrane [20] = assay: Induction of cytoplasmic membrane permeabilization in Escherichia coli TG1 assessed as increase in fluorescence at MIC measured after 40 to 50 mins by PI/Sytox green dye based analysis; details: time 40-50 min
Escherichia coli [21] = assay: Antibacterial activity against Escherichia coli TG1 incubated for 12 hrs by microdilution method; type: functional
[22] = Selectivity ratio of MBIC80 for antibiofilm activity against preformed biofilm in Escherichia coli TG1 to MIC for antibacterial activity against Escherichia coli TG1; type: functional
Erythrocyte [23] = assay: Hemolytic activity in human RBC assessed as hemolysis at 0.25 to 100 uM incubated for 2 hrs by absorbance based plate reader analysis; type: toxicity, cell-based; details: dose 0.25-100 µM
Cell membrane [24] = assay: Disruption of outer membrane integrity in Escherichia coli TG1 assessed as formation of blisters outside the cell measured after 60 mins by TEM analysis; type: cell membranes
Cell membrane [25] = assay: Disruption of outer membrane integrity in Escherichia coli TG1 assessed as loss of double layer integrity measured after 60 mins by TEM analysis
Enterococcus faecium = assay: Antibacterial activity against vancomycin-resistant Enterococcus faecium clinical isolate FI-48 incubated for 12 hrs by microdilution method; type: functional
Escherichia coli [26] = assay: Antibacterial activity against Escherichia coli TG1 transfected with pGEN-luxCDABE plasmid infected in female BALB/C mouse model of skin infection assessed as reduction in bacterial burden at 16 mg/kg, SC pre-infected with bacteria for 2 hrs followed by compound administration and measured on day 2 by luminescence imaging analysis relative to control; type: functional; parameters: scale not given: the % may be the effect or the level left; details: time 2 day
Escherichia coli [27] = assay: Antibacterial activity against Escherichia coli TG1 transfected with pGEN-luxCDABE plasmid infected in female BALB/C mouse model of skin infection assessed as reduction in bacterial burden at 16 mg/kg, SC pre-infected with bacteria for 2 hrs followed by compound administration and measured after 2 to 3 days by luminescence imaging analysis; type: functional, organism-based; details: time 2-3 day
Erythrocyte [28] = assay: Hemolytic activity in human RBC assessed as hemolysis at 5 uM incubated for 2 hrs by absorbance based plate reader analysis; type: toxicity, cell-based
Pseudomonas aeruginosa [29] = assay: Antibacterial activity against Pseudomonas aeruginosa clinical isolate FI-25 expressing VIM-1 metallo-beta-lactamase incubated for 12 hrs by microdilution method; type: functional
Pseudomonas aeruginosa [30] = assay: Antibacterial activity against Pseudomonas aeruginosa clinical isolate FI-29 expressing GES-5 beta-lactamase incubated for 12 hrs by microdilution method; type: functional
Mus musculus = assay: Anti-inflammatory activity in female BALB/C skin infection mouse model infected with Escherichia coli TG1 transfected with pGEN-luxCDABE plasmid assessed as reduction in monocyte number in skin at 16 mg/kg, SC pre-infected with bacteria for 2 hrs followed by compound administration and measured after 3 days by DAPI staining based immunohistochemical analysis; type: functional, organism-based; details: time 3.0 day

Substance	Activity (Lipopolysaccharide (LPS))	MIC (Enterococcus faecalis) [µM]	MIC (Escherichia coli [1]) [µM]	MBIC80 (Klebsiella pneumoniae [2]) [µM]	LC50 (RAW264.7 [3])	MIC (Pseudomonas aeruginosa [4]) [µM]	MBIC80 (Escherichia coli [5]) [µM]	Activity (Cell membrane [7])	Activity (Cell membrane [8])	Activity (RAW264.7 [9]) [%]	Stability [10]	Activity (Cell membrane [11])	MIC (Staphylococcus aureus) [µM]	Stability [12]	MIC (Klebsiella pneumoniae [14]) [µM]	MIC (Klebsiella pneumoniae [15]) [µM]	Activity (Cell membrane [16])	Activity (Cell membrane [17])	Activity (Cell membrane [20])	MIC (Escherichia coli [21]) [µM]	other results
I: H-GRFKRFRKKLKK-NH2 / II: H-GRFKRFRKKLK / III: H-GRFKRFRKKL / IV: H-GRFKRFRKKL (amide I:11-IV:C, I:12-II:C, II:11-III:C)	Dose-Dependent Effect	> 25	> 25	50	1.258 10^-5M	6	50	Active	Active	100	Unstable	Dose-Dependent Effect	> 25	Stable	> 25	25	Active	Active	Active	6	IC20 (Klebsiella pneumoniae [6]): 50 µM; IC20 (Escherichia coli [13]): 25 µM; Selectivity ratio [18]: 4; Activity (Erythrocyte [19]): Toxic
I: H-KKLLGKNWKLMKK-NH2 / II: H-KKLLGKNWKLMK / III: H-KKLLGKNWKLM / IV: H-KKLLGKNWKLM (amide I:12-IV:C, I:13-II:C, II:12-III:C)	Dose-Dependent Effect	> 25	> 25	50	1 10^-5M	3	25	Active	Active	100	Stable	Dose-Dependent Effect	> 25	Stable	> 25	25	Active	Active	Active	3	Selectivity ratio [22]: 8; Activity (Erythrocyte [23]): Non-Toxic
I: H-TLLKKVLKAAAKKK-NH2 / II: H-TLLKKVLKAAAKK / III: H-TLLKKVLKAAAK / IV: H-TLLKKVLKAAAK (amide I:13-IV:C, I:14-II:C, II:13-III:C)	Dose-Dependent Effect	25	3	50	4.405 10^-7M	6	3	Active	Active	100	Stable	Dose-Dependent Effect	> 25	Stable	6	6	Active	Active	Active	1.5	Activity (Cell membrane [24]): Active; Activity (Cell membrane [25]): Active; MIC (Enterococcus faecium): 6 µM; Activity (Escherichia coli [26]): 75%; IC20 (Klebsiella pneumoniae [6]): 50 µM; Activity (Escherichia coli [27]): Active; Activity (Erythrocyte [28]): Toxic; IC20 (Escherichia coli [13]): 1.5 µM; MIC (Pseudomonas aeruginosa [29]): 12 µM; MIC (Pseudomonas aeruginosa [30]): 12 µM; Activity (Mus musculus): Active
